Data reported in ChEMBL document CHEMBL1132812, “Novel phosphinic and phosphonic acid analogues of the anticonvulsant valproic acid” (Bioorg Med Chem Lett, 2000).
The source made the active and inactive calls. No cut-off for these calls is given here.

What was measured:
Rattus norvegicus [1] = species on record: Rattus norvegicus; test: Compound was evaluated for the anticonvulsant activity in amygdala kindled rats; Inactive; format: functional, organism-based
Rattus norvegicus [2] = species on record: Rattus norvegicus; test: Compound was evaluated for the anticonvulsant activity in amygdala kindled rats; Active; format: functional, organism-based
[3] = target: 4-aminobutyrate aminotransferase, mitochondrial (Homo sapiens) (UniProt P80404); test: Compound was tested for the inhibition of Gamma-amino-N-butyrate transaminase; Active
Chain of 4-aminobutyrate aminotransferase, mitochondrial (Homo sapiens) (P80404 whole entry): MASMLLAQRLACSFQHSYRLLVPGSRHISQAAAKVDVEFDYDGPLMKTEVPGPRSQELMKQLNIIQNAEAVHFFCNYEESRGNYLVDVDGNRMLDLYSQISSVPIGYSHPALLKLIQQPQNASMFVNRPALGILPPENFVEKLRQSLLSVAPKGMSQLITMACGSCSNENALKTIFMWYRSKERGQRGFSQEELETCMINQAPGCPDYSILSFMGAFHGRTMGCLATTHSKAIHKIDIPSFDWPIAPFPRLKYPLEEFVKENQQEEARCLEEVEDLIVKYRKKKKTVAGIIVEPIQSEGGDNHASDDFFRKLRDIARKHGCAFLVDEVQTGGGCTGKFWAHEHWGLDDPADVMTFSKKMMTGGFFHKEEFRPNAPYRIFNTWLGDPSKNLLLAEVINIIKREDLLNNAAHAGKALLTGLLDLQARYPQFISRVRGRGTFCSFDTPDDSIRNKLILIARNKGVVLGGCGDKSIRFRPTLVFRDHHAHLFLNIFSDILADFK

[4] = target: T1, Succinate-semialdehyde dehydrogenase, mitochondrial (Homo sapiens) (UniProt P51649); test: Compound was tested for the inhibition of succinic semialdehyde dehydrogenase; Active
T1 sequence (whole entry): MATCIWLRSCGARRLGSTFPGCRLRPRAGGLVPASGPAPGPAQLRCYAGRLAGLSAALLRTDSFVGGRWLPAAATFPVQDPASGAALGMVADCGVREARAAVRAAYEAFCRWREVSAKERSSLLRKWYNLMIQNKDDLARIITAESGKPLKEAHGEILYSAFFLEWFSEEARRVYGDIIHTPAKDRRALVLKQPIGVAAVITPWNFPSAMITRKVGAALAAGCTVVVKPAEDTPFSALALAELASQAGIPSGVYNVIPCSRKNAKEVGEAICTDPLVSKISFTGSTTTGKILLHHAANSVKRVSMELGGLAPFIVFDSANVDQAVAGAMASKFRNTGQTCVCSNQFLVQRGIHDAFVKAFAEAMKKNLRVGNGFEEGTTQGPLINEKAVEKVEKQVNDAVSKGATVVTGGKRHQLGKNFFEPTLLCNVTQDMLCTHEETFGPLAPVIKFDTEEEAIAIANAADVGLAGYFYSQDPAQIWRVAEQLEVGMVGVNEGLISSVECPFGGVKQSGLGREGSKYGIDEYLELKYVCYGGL

| SMILES | Activity (Rattus norvegicus [1]) | Activity (Rattus norvegicus [2]) | Activity [3] | Activity [4] |
| --- | --- | --- | --- | --- |
| CCCC(CCC)P(=O)(O)O | inactive | – | – | – |
| CCCC(CCC)[PH](=O)O | inactive | – | – | – |
| CCCC(CCC)P(C)(=O)O | inactive | – | – | – |
| CCCC(CCC)C(=O)O | – | Active | Active | Active |
